Measurements: patent EP4740948A1 (Dong Wha Pharm. Co., Ltd., priority 2023, dated 2025)

Columns and labels:
MIA-PaCa-2 cells = test: Cancer cell proliferation inhibition (Cell Counting Kit-8), pancreatic cancer cell line; type: cell-based; settings: 1000 nM, cultured seven to 11 days; for inhibition at 1 µM: Homo sapiens, MIA PaCa-2, 264 h, read-out: % inhibition rate MIA-Paca2
In short: (§1)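 Single-concentration test: 1000 nM compound, 7-11 day culture after seeding 100 to 1,000 cells per well in 10% FBS medium. Percent inhibition derived from Cell Counting Kit-8 signal relative to untreated control.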

G401 cells = test: Cancer cell proliferation inhibition (Cell Counting Kit-8), rhabdoid tumor cell line; type: cell-based; settings: 1000 nM, cultured seven to 11 days; for inhibition at 1 µM: Homo sapiens, G-401, 264 h, read-out: % inhibition rate G401
In short: (§2)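 Single 1000 nM dose of test substance, applied to cells seeded at 100–1,000 per well in 10% FBS medium, then culture for seven to 11 days. CCK-8 read-out; inhibition rate expressed as percent relative to untreated control.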

MKN-45 cells = test: Cancer cell proliferation inhibition (Cell Counting Kit-8), gastric cancer cell line; type: cell-based; settings: 1000 nM, cultured seven to 11 days; for % inhibition rate MKN -45: 1 µM; for inhibition at 1 µM: Homo sapiens, MKN-45, 264 h, read-out: % inhibition rate MKN -45
In short: as §2

SW-13 cells = test: Cancer cell proliferation inhibition (Cell Counting Kit-8), adrenal cancer cell line; type: cell-based; settings: 1000 nM, cultured seven to 11 days; for % inhibition rate SW-13: 1 µM; for inhibition at 1 µM: Homo sapiens, SW13, 264 h, read-out: % inhibition rate SW-13
In short: as §1

Lovo cells = test: Cancer cell proliferation inhibition (Cell Counting Kit-8), colorectal cancer cell line; type: cell-based; settings: 1000 nM, cultured seven to 11 days; for inhibition at 1 µM: Homo sapiens, LoVo, 264 h, read-out: % inhibition rate LoVo
In short: as §1

NCI-H1299 cells = test: Cancer cell proliferation inhibition (Cell Counting Kit-8), lung cancer cell line; type: cell-based; settings: 1000 nM, cultured seven to 11 days; for inhibition at 1 µM: Homo sapiens, NCI-H1299, 264 h, read-out: % inhibition rate NCI-H129 9
In short: as §1

EZH2 = EZH2 (Homo sapiens, UniProt Q15910); test: AlphaLISA enzyme activity inhibition, EZH2; type: biochemical
Chain of EZH2 (Q15910 whole entry, species assumed): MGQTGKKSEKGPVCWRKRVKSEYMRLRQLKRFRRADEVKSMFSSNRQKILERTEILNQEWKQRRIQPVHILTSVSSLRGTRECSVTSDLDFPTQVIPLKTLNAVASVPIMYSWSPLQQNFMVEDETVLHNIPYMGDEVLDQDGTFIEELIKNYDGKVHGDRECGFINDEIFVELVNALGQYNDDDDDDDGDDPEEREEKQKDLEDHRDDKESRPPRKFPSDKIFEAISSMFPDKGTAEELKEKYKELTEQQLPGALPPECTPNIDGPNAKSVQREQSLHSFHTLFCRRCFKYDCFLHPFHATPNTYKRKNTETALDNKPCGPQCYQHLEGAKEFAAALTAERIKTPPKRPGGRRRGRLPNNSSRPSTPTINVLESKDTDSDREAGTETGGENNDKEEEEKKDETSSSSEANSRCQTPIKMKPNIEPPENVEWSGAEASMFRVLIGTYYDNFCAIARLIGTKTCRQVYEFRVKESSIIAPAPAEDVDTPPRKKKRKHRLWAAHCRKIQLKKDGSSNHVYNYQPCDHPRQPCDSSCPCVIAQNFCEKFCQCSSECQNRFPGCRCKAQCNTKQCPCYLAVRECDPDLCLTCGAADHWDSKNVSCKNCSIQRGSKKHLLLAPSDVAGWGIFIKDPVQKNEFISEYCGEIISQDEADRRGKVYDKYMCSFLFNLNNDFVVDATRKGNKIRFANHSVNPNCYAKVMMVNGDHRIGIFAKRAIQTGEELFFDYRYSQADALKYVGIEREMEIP
Chain of EZH2 (O75530 whole entry partner, species assumed): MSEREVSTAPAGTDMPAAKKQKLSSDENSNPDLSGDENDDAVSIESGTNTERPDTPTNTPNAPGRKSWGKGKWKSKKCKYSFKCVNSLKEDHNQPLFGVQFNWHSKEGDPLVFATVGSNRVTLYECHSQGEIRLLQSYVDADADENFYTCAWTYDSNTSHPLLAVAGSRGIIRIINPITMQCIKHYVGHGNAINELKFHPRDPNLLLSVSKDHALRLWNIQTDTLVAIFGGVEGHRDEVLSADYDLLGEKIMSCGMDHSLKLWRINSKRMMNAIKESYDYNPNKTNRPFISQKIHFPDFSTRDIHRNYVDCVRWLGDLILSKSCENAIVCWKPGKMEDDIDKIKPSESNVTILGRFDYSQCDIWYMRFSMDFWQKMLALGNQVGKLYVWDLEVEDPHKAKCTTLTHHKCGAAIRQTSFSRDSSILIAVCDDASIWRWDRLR
Chain of EZH2 (Q15022 whole entry partner, species assumed): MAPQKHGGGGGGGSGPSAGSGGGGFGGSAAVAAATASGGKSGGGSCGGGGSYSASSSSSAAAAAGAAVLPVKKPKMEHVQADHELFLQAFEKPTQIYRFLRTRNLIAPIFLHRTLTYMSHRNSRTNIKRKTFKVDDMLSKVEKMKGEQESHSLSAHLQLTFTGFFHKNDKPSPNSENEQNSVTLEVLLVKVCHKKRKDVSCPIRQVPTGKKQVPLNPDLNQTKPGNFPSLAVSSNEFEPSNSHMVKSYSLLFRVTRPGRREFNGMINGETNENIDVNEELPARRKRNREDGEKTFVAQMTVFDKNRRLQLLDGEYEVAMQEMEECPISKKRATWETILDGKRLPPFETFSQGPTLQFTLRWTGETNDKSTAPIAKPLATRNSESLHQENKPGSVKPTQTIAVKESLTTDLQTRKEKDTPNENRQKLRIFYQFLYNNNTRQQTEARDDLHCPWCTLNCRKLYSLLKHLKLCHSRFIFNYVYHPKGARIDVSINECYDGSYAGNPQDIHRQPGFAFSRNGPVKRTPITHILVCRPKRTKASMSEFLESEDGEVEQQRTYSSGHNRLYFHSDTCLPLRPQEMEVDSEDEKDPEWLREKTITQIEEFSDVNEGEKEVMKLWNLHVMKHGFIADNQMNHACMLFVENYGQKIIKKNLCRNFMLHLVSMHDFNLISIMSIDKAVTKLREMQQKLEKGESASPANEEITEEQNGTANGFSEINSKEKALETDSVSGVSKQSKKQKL
In short: (§3)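 Enzyme inhibition rate was calculated relative to DMSO from AlphaLISA signal, with acceptor beads added after a 2 h methylation reaction and donor beads 1 h later. Each enzyme, EZH1 or EZH2, was pre-mixed with compound (final 5 nM or 10 nM) in Tris buffer pH 8.0 before histone H3 peptide and SAM initiated the reaction.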

EZH1 = EZH1 (Homo sapiens, UniProt Q92800); test: AlphaLISA enzyme activity inhibition, EZH1; type: biochemical
Chain of EZH1 (Q92800 whole entry, species assumed): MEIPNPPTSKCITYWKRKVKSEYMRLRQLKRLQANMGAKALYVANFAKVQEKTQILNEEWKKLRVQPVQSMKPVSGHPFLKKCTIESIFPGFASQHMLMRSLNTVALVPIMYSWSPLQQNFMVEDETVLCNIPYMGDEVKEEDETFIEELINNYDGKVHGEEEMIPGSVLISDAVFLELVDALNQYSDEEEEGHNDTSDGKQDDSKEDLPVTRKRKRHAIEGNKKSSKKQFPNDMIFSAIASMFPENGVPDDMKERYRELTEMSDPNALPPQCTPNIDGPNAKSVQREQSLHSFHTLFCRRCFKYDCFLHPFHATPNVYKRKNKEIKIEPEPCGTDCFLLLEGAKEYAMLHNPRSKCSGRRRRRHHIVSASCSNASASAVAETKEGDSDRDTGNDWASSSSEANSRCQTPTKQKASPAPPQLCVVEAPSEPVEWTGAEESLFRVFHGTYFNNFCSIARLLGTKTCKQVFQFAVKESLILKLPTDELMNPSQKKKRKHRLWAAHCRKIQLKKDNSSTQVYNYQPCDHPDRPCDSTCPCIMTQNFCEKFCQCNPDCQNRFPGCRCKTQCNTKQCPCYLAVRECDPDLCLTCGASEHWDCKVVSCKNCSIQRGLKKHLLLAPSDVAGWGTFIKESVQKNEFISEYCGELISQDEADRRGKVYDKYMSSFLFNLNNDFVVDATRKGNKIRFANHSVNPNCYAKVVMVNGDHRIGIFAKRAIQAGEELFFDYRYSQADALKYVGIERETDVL
Chain of EZH1 (O75530 whole entry partner, species assumed): as the sequence (O75530 whole entry partner, species assumed) above
Chain of EZH1 (Q15022 whole entry partner, species assumed): as the sequence (Q15022 whole entry partner, species assumed) above
In short: as §3

Row | Enzyme inhibition % EZH2 (EZH2; 5nM test substance, 0.005 µM) | Enzyme inhibition % EZH2 (EZH2; 10nM test substance, 0.01 µM) | Enzyme inhibition % EZH1 (EZH1; 10nM test substance, 0.01 µM) | inhibition at 0.005 µM (EZH2; 5nM test substance) | inhibition at 0.005 µM (EZH1; 5nM test substance) | SMILES | % inhibition rate MKN -45 (MKN-45 cells) | % inhibition rate SW-13 (SW-13 cells) | % inhibition rate LoVo (Lovo cells) | inhibition at 1 µM (MIA-PaCa-2 cells) | inhibition at 1 µM (G401 cells) | inhibition at 1 µM (MKN-45 cells) | inhibition at 1 µM (SW-13 cells) | inhibition at 1 µM (Lovo cells) | inhibition at 1 µM (NCI-H1299 cells) | also measured
1 | 98.3% | 99.2% | 65.9% | – | – | CCN(C)c1ccc(-c2cc(C(=O)NCc3c(SC)cc(C)[nH]c3=O)c(C)c3c2OC(C)(C2CCN(CC(F)(F)F)CC2)O3)cn1 (single isomer, unassigned) [Compound 86, 7-(6-(ethyl(methyl)amino)pyridin-3-yl)-2,4-dimethyl-N-((6-methyl-4-(methylthio)-2-oxo-1,2-dihydropyridin-3-yl)methyl)-2-(1-(2,2,2-trifluoroethyl)piperidin-4-yl)benzo[d][1,3]dioxole-5-carboxamide] | ++ (++: more than 30% and less than 70%) | + (+: ≤30%) | +++ (+++: ≥70%) | – | – | – | – | – | – | % inhibition rate MIA-Paca2 (MIA-PaCa-2 cells): + (+: ≤30%); % inhibition rate G401 (G401 cells; 1 µM): +++ (+++: ≥70%); % inhibition rate NCI-H129 9 (NCI-H1299 cells; 1 µM): + (+: ≤30%); Enzyme inhibition % EZH1 (EZH1; 5nM test substance, 0.005 µM): 42.0%
2 | – | – | – | 98.6% | 35.1% | COCCN(C)[C@H]1CC[C@H](C2(C)Oc3c(-c4ccc(N5C[C@@H](C)O[C@@H](C)C5)nc4)cc(C(=O)NCc4c(SC)cc(C)[nH]c4=O)c(C)c3O2)CC1 (stereo partly drawn) [Compound 24, 7-(6-((2S,6R)-2,6-dimethylmorpholino)pyridin-3-yl)-2-(trans-4-((2-methoxyethyl)(methyl)amino)cyclohexyl)-2,4-dimethyl-N-((6-methyl-4-(methylthio)-2-oxo-1,2-dihydropyridin-3-yl)methyl)benzo[d][1,3]dioxole-5-carboxamide] | – | – | – | ≤ 30% | 30 to 70% | ≤ 30% | 30 to 70% | ≥ 70% | ≤ 30% | –
3 | 37.0% | 82.6% | 19.9% | – | – | CSc1cc(C)[nH]c(=O)c1CNC(=O)c1cc(-c2ccc(N3C[C@@H](C)O[C@@H](C)C3)nc2)c2c(c1C)OC(C)([C@H]1CC[C@H](N3CC(OCC(F)F)C3)CC1)O2 (stereo partly drawn) [Compound 104, 2-(trans-4-(3-(2,2-difluoroethoxy)azetidin-1-yl)cyclohexyl)-7-(6-((2S,6R)-2,6-dimethylmorpholino)pyridin-3-yl)-2,4-dimethyl-N-((6-methyl-4-(methylthio)-2-oxo-1,2-dihydropyridin-3-yl)methyl)benzo[d][1,3]dioxole-5-carboxamide] | ++ (++: more than 30% and less than 70%) | ++ (++: more than 30% and less than 70%) | +++ (+++: ≥70%) | – | – | – | – | – | – | % inhibition rate MIA-Paca2 (MIA-PaCa-2 cells; 1 µM): + (+: ≤30%); % inhibition rate G401 (G401 cells): +++ (+++: ≥70%); % inhibition rate NCI-H129 9 (NCI-H1299 cells): + (+: ≤30%)
4 | – | – | – | 80.1% | 27.2% | CSc1cc(C)[nH]c(=O)c1CNC(=O)c1cc(-c2cnc(N3CCSCC3)nc2)c2c(c1C)OC(C)(C1CCN(CC(F)(F)F)CC1)O2 (stereo not shown) [Compound 92, 2,4-dimethyl-N-((6-methyl-4-(methylthio)-2-oxo-1,2-dihydropyridin-3-yl)methyl)-7-(2-thiomorpholinopyrimidin-5-yl)-2-(1-(2,2,2-trifluoroethyl)piperidin-4-yl)benzo[d][1,3]dioxole-5-carboxamide] | – | – | – | ≤ 30% | ≥ 70% | 30 to 70% | ≤ 30% | ≥ 70% | ≤ 30% | inhibition at 0.01 µM (EZH2; 10nM test substance): 91.8%; inhibition at 0.01 µM (EZH1; 10nM test substance): 43.2%
